ChEMBL document CHEMBL4020789, “Development of 5-hydroxypyrazole derivatives as reversible inhibitors of lysine specific demethylase 1” (Bioorg Med Chem Lett, 2017)

What was measured:
[1] = Apparent permeability of the compound across apical side to basolateral side in human Caco2 cells; format: ADME, cell-based; conditions: Caco-2
[2] = Intrinsic clearance in human microsomes assessed […]; format: ADME, Microsome
[3] = Half life in human microsomes; format: ADME, Microsome
[4] = Half life in mouse hepatocytes; format: ADME, cell-based, Hepatocyte
[5] = target: Voltage-gated inwardly rectifying potassium channel KCNH2 (Homo sapiens, UniProt Q12809); assay: Inhibition of human ERG by patch clamp assay
Sequence of Voltage-gated inwardly rectifying potassium channel KCNH2 (Q12809 whole entry): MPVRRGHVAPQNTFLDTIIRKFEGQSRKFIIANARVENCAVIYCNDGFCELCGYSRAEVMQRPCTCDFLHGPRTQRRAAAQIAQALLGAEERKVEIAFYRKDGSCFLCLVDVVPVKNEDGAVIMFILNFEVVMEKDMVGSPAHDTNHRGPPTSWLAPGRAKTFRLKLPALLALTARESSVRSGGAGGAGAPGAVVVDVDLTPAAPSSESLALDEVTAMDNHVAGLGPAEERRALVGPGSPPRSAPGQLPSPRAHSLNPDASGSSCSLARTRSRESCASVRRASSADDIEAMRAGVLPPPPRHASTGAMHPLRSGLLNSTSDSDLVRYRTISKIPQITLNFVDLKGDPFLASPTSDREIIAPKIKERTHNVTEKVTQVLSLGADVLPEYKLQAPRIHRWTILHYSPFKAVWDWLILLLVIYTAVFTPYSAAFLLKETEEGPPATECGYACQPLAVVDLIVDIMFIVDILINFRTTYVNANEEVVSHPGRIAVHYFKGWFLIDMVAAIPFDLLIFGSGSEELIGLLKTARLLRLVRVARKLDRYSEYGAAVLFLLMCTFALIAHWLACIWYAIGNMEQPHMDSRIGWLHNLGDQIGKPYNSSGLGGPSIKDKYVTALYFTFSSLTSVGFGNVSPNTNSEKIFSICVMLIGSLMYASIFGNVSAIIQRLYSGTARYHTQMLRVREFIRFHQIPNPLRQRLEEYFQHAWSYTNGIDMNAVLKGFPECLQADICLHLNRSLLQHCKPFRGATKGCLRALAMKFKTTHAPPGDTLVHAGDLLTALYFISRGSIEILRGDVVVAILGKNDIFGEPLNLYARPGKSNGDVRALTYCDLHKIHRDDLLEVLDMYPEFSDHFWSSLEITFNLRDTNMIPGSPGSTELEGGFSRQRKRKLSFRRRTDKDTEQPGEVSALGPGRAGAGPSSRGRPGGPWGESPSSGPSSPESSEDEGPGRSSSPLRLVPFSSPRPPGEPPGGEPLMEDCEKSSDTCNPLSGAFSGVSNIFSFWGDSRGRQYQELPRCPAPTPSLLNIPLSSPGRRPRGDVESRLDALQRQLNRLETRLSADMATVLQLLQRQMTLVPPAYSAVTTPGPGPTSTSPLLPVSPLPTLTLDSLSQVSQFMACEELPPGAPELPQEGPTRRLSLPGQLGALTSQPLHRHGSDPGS

[6] = Oral bioavailability in mouse; format: ADME, organism-based; conditions: in vivo
Mus musculus = assay: AUC in iv dosed mouse; format: ADME, organism-based; conditions: in vivo
[7] = Clearance in mouse; format: ADME, organism-based; conditions: in vivo
[8] = Half life in iv dosed mouse; format: ADME, organism-based; conditions: in vivo
[9] = Half life in po dosed mouse; format: ADME, organism-based; conditions: in vivo
[10] = Volume of distribution in mouse; format: ADME, organism-based; conditions: in vivo
[11] = Fraction unbound in mouse; format: ADME, organism-based; conditions: in vivo

| Papp A→B [1] [×10⁻⁶ cm/s] | CL [2] [µL/min] | half-life [3] [h] | half-life [4] [h] | bioavailability [6] [%] | AUC (Mus musculus) [µg/h/mL] | clearance [7] [mL/min/kg] | half-life [8] [h] | half-life [9] [h] | Vd [10] [L/kg] | fraction unbound [11] | Structure (SMILES) | IC50 [5] [µM] |
| --- | --- | --- | --- | --- | --- | --- | --- | --- | --- | --- | --- | --- |
| < 0.1 | 5.6 | 4.17 |  |  |  |  |  |  |  |  | N#Cc1ccc(-n2nc(C(=O)N3CCC[C@@H](N)C3)cc2OCC(O)C(F)(F)F)cc1 (some centres undefined) |  |
| 0.73 | 6.91 | 3.35 | 1.13 |  |  |  |  |  |  |  | Cc1cc(COc2cc(C(=O)N3CCC[C@@H](N)C3)nn2-c2ccc(C#N)cc2)on1 |  |
|  |  |  |  |  |  |  |  |  |  |  | Cc1ccc(-c2ncc(OC[C@H]3CCNC3)cc2-c2ccc(C#N)cc2)cc1 | 3 |
| 0.415 | 5.6 | 4.17 | 2.02 | 38 | 0.405 | 45.7 | 0.9 | 1.3 | 3.1 | 0.19 | CCc1cc(COc2cc(C(=O)N3CCC[C@@H](N)C3)nn2-c2ccc(C#N)cc2)on1 |  |
